This passage reports MIC results from DBAASP.

≈ marks a conversion by molar mass, not a printed value.

Some test systems named below: Escherichia coli UB1005; Candida albicans; Staphylococcus xylosus; Escherichia coli D31; Escherichia coli C600.
Holding throughout (experiment): ≥ marks a high value that may be exact or a test limit, other limits are often not marked, values filed in µg/mL are converted to µM
Test [1] deals with Candida albicans CGMCC 2.2086.
The test system of test [2] is Enterococcus faecalis ATCC 29212.
Test [3] deals with Pseudomonas aeruginosa ATCC 27853.
In test [4] the test system is Salmonella enterica subsp. enterica serovar Choleraesuis CVCC 503.
Test [5] deals with Pseudomonas aeruginosa PAO1.
Test [6] relates to Salmonella enterica subsp. enterica serovar Typhimurium ATCC 14028.
The subject of test [7] is Candida tropicalis CGMCC 2.1975.
Test [8] relates to Staphylococcus aureus ATCC 43300.
Test [9] relates to Staphylococcus aureus ATCC 29213.
The test system of test [10] is Staphylococcus aureus ATCC 25923.
The subject of test [11] is Candida parapsilosis CGMCC 2.3989.
In test [12] the test system is Salmonella enterica subsp. enterica serovar Typhimurium C77-31.
Test [13] relates to Staphylococcus epidermidis ATCC 12228.
The subject of test [14] is Escherichia coli DH5alpha.
For test [15], the system named is Candida albicans ATCC 64550.
Test [16] deals with Streptococcus mutans ATCC 25175.
The subject of test [17] is Pseudomonas aeruginosa ATCC 15442.
Test [18] has as its system Candida albicans ATCC 10231.
Test [19] relates to Bacillus cereus ATCC 14579.
Test [20] deals with Staphylococcus aureus ATCC 6538.
Test [21] relates to Escherichia coli ATCC 35218.
In test [22] the test system is Klebsiella pneumoniae ATCC 700603.
Test [23] has as its system Staphylococcus aureus ATCC 700699.
For test [24], the system named is Staphylococcus aureus ATCC 33591.
For test [25], the system named is Escherichia coli ATCC 25922.
In test [26] the test system is Staphylococcus aureus 209P.

Regarding `CC(C)C[C@H](NC(=O)[C@H](CCCCN)NC(=O)[C@H](CCCCN)NC(=O)[C@H](CC(C)C)NC(=O)[C@H](CCCN=C(N)N)NC(=O)[C@H](CS)NC(=O)[C@H](C)NC(=O)[C@H](CC(C)C)NC(=O)[C@H](CCCCN)NC(=O)[C@H](CCCCN)NC(=O)[C@@H](N)CC(C)C)C(=O)N[C@@H](C)C(=O)N[C@@H](CS)C(=O)N[C@@H](CCCN=C(N)N)C(N)=O` [LKKLACRLKKLACR], the minimum inhibitory concentration (MIC) in test [1] was not below 64 µM; in test [2], more than 64 µM; against Escherichia coli UB1005, not below 32 µM; in [3], 32 µM (≈ 52.6 µg/mL); in [4], not below 32 µM; in test [5], 16 µM (≈ 26.3 µg/mL). Further, the MIC in [6] was 64 µM (≈ 105 µg/mL); in test [7], 8 µM (≈ 13.1 µg/mL); against Candida albicans it was 45.3 µM (≈ 74.4 µg/mL); in [8] it was 64 µM (≈ 105 µg/mL); in [9], 64 µM (≈ 105 µg/mL); in test [10] it was more than 64 µM. In addition, the minimal inhibitory concentration (MIC) is not below 64 µM in [11], not below 32 µM in [12] and more than 64 µM in [13].

Consider `CC[C@H](C)[C@H](NC(=O)[C@H](CC(C)C)NC(=O)[C@@H](NC(=O)[C@H](CCCN=C(N)N)NC(=O)[C@H](CCCCN)NC(=O)[C@H](CCCN=C(N)N)NC(=O)[C@H](CCCCN)NC(=O)[C@H](CCCN=C(N)N)NC(=O)[C@H](CCCCN)NC(=O)[C@H](CCCN=C(N)N)NC(=O)[C@H](CCCCN)NC(=O)[C@H](CC(C)C)NC(=O)[C@@H](NC(=O)[C@@H](N)CC(C)C)[C@@H](C)CC)[C@@H](C)CC)C(=O)O` [LILKRKRKRKRILI], for which the results for the MIC (in [3]; against Staphylococcus xylosus; in test [14]) were 128 µM (≈ 235 µg/mL), not below 64 µM and not below 64 µM, respectively.

With `CC[C@H](C)[C@H](NC(=O)[C@H](CC(C)C)NC(=O)[C@@H](NC(=O)[C@H](CC(C)C)NC(=O)[C@@H](NC(=O)[C@H](CC(C)C)NC(=O)[C@@H](NC(=O)[C@H](CCCCN)NC(=O)[C@H](CCCN=C(N)N)NC(=O)[C@@H](N)CCCCN)[C@@H](C)CC)[C@@H](C)CC)[C@@H](C)CC)C(=O)N[C@@H](CC(C)C)C(=O)O` [KRKILILILIL], the minimum inhibitory concentration (MIC) (with Staphylococcus xylosus; in [14]) was not below 64 µM in each case.

On to `NCCCC[C@H](NC(=O)[C@H](CCCCN)NC(=O)[C@H](CCCN=C(N)N)NC(=O)[C@H](CCCN=C(N)N)NC(=O)[C@H](Cc1ccc(O)cc1)NC(=O)[C@H](Cc1ccc(O)cc1)NC(=O)[C@H](CCCCN)NC(=O)[C@H](CCCN=C(N)N)NC(=O)CNC(=O)[C@@H](N)CCCN=C(N)N)C(=O)O` [RGRKYYRRKK], for which the minimum inhibitory concentration (MIC) in test [15] was not below 100 µM.

As for `CC(C)C[C@H](NC(=O)[C@H](C)NC(=O)[C@H](CC(N)=O)NC(=O)[C@H](Cc1ccccc1)NC(=O)[C@@H](NC(=O)[C@@H](NC(=O)CN)C(C)C)[C@@H](C)O)C(=O)N[C@@H](CCCCN)C(=O)NCC(=O)N[C@H](C(=O)N[C@@H](C)C(=O)N[C@@H](CCCCN)C(=O)N[C@H](C(=O)N[C@H](C(=O)N[C@@H](C)C(=O)N[C@@H](C)C(=O)N[C@@H](CCC(N)=O)C(=O)N[C@@H](CC(C)C)C(=O)N[C@@H](CC(C)C)C(=O)N[C@@H](CCCCN)C(=O)N[C@H](C(=O)N[C@@H](C)C(=O)N[C@@H](CCCN=C(N)N)C(N)=O)[C@@H](C)O)C(C)C)[C@@H](C)O)C(C)C` [GVTFNALKGVAKTVAAQLLKTAR], the MIC against Escherichia coli D31 is not below 64 µM; in [10], 16 µM (≈ 37.7 µg/mL); in [16] it was not below 100 µM; in test [17] it was not below 100 µM; in test [18], more than 100 µM.

As for `CC[C@H](C)[C@H](N)C(=O)N[C@@H](CC(N)=O)C(=O)N[C@@H](CC(C)C)C(=O)N[C@@H](CCCCN)C(=O)N[C@@H](C)C(=O)N[C@H](C(=O)N[C@@H](C)C(=O)N[C@@H](C)C(=O)N[C@@H](CC(C)C)C(=O)N[C@H](C(=O)N[C@@H](CCCCN)C(=O)N[C@@H](CCCCN)C(=O)N[C@H](C(=O)O)C(C)C)C(C)C)[C@@H](C)CC` [INLKAIAALVKKV], the MIC was not below 41.5 µM in [19]; 43.2 µM (≈ 59.7 µg/mL) in test [20]; 12.2 µM (≈ 16.8 µg/mL) in test [6]; 23.6 µM (≈ 32.6 µg/mL) in [16]; 8.52 µM (≈ 11.8 µg/mL) in [21]; 13.3 µM (≈ 18.4 µg/mL) in test [22].

Consider `CC[C@H](C)[C@H](NC(=O)[C@H](CC(=O)O)NC(=O)[C@H](CCCCN)NC(=O)[C@H](C)NC(=O)[C@H](C)NC(=O)CNC(=O)[C@H](CCCCN)NC(=O)[C@H](CC(C)C)NC(=O)[C@@H](NC(=O)[C@H](CC(=O)O)NC(=O)[C@@H](NC(=O)[C@@H](NC(=O)CN)C(C)C)C(C)C)[C@@H](C)CC)C(=O)N[C@@H](C)C(=O)NCC(=O)N[C@@H](Cc1cnc[nH]1)C(=O)N[C@@H](CC(C)C)C(=O)N[C@@H](C)C(=O)N[C@@H](CO)C(=O)N[C@@H](CCCCN)C(=O)N[C@H](C(=O)N[C@@H](C)C(=O)N[C@@H](CC(N)=O)C(=O)N[C@@H](CCCCN)C(=O)N[C@@H](CC(C)C)C(N)=O)C(C)C` [GVVDILKGAAKDIAGHLASKVANKL], for which the MIC in test [3] was more than 100 µM; in test [23], not below 100 µM; in test [24], not below 100 µM; in test [25], more than 100 µM; in [9], more than 100 µM; in test [22], more than 100 µM.

Take `NCCCC[C@H](NC(=O)[C@H](CCCN=C(N)N)NC(=O)[C@H](CCCCN)NC(=O)CNC(=O)[C@H](CCCCN)NC(=O)[C@H](CCCN=C(N)N)NC(=O)[C@@H](N)CCCCN)C(=O)O` [KRKGKRK]: the minimal inhibitory concentration (MIC) (in the test on Staphylococcus xylosus; in test [14]) was not below 64 µM throughout.

Consider `CC(C)[C@H](NC(=O)[C@H](Cc1c[nH]c2ccccc12)NC(=O)[C@H](CCCCN)NC(=O)[C@@H](N)CCCN=C(N)N)C(=O)N[C@@H](Cc1c[nH]c2ccccc12)C(=O)N[C@@H](Cc1c[nH]c2ccccc12)C(=O)N[C@@H](CCCN=C(N)N)C(=O)N[C@@H](CC(N)=O)C(=O)N[C@@H](CCCN=C(N)N)C(N)=O` [RKWVWWRNR], for which the minimal inhibitory concentration (MIC) in [25] is 90.1 µM (≈ 125 µg/mL); in test [9] it was 11.5 µM (≈ 16 µg/mL); in test [13] it was 5.77 µM (≈ 7.99 µg/mL); in [15], not below 100 µM.

Take `CC(C)[C@@H]1NC(=O)CNC(=O)[C@H](CCCN=C(N)N)NC(=O)[C@H](C(C)C)NC(=O)[C@H](CCCN=C(N)N)NC(=O)[C@H](C)NC(=O)[C@H](Cc2ccc(O)cc2)NC(=O)[C@H](C(C)C)NC(=O)[C@@H](NC(=O)[C@H](Cc2c[nH]c3ccccc23)NC(=O)[C@@H](N)CCCN=C(N)N)CSSC[C@@H](C(=O)N[C@@H](CCCN=C(N)N)C(=O)O)NC(=O)[C@H](CCCN=C(N)N)NC(=O)[C@H](CCCN=C(N)N)NC(=O)[C@H](Cc2ccc(O)cc2)NC(=O)[C@H](CCCN=C(N)N)NC1=O` [RWCVYARVRGVRYRRCR]: the MIC in test [26] came to 3.13 µM (≈ 7.05 µg/mL); in [5] it was 6.25 µM (≈ 14.1 µg/mL); with Escherichia coli C600 it was 3.13 µM (≈ 7.05 µg/mL).
